# Values joined by “and” are separate entries in the source; they are usually repeats but may differ in a detail not shown here. Equal values may be shown once. Read-outs that look alike come from different tables or passages of the source. Marks after values point to notes of the source that are not given here.
# Key:
# [1] = system: A549 (human lung carcinoma); assay: In vitro cytotoxicity, MTT test; type: cell-based; conditions: Homo sapiens, A549, 72 h, read-out: Cytotoxicity IC50, A549
# Experimental: (§1) Anticancer activity of selenopheno[h]chromenes was tested in vitro using cytotoxicity assay. […] About 2-9·10^4 cells/mL (depending on line nature) were placed in 96-well plates immediately after compounds were added to the wells. Untreated cells were used as a control. The plates were incubated for 72 h, 37° C., 5% CO2. The number of surviving cells was determined using 3-(4,5-dimethylthiazol-2-yl)-2,5-diphenyltetrazolinium bromide (MTT). MTT-test: after incubating culture medium was removed and 200 μL fresh medium with 10 mM HEPES was added in each well of the plate, than 20 μL MTT (2 mg/mL in HBSS) was added. After incubation (3 hr, 37° C., 5% CO2), the medium with MTT was removed and 200 μL DMSO were added at once to each sample. The samples were tested at 540 nm on Anthos HT II photometer.
# [2] = system: MDA-MB-435s (human melanoma); assay: In vitro cytotoxicity, MTT test; type: cell-based; conditions: 72 h, read-out: Cytotoxicity IC50, MDA-MB-435s
# Experimental: as §1
# [3] = system: MES-SA (human uterus sarcoma); assay: In vitro cytotoxicity, MTT test; type: cell-based; conditions: 72 h, read-out: Cytotoxicity IC50, MES-SA
# Experimental: as §1
# [4] = system: MCF-7 (human breast adenocarcinoma, estrogen-positive); assay: In vitro cytotoxicity, MTT test; type: cell-based; conditions: read-out: Cytotoxicity IC50, MCF-7
# Experimental: as §1
# [5] = system: HepG2 (human hepatocellular carcinoma); assay: In vitro cytotoxicity, MTT test; type: cell-based; conditions: read-out: Cytotoxicity IC50, HepG2
# Experimental: as §1
# [6] = system: HT-1080 (human fibrosarcoma); assay: In vitro cytotoxicity, MTT test; type: cell-based; conditions: read-out: Cytotoxicity IC50, HT-1080
# Experimental: as §1
# MG-22A (mouse hepatoma) = assay: In vitro cytotoxicity, MTT test; type: cell-based; conditions: 72 h, read-out: Cytotoxicity IC50, MG-22A
# Experimental: as §1
# CCL-8 (mouse sarcoma) = assay: In vitro cytotoxicity, MTT test; type: cell-based; conditions: 72 h, read-out: Cytotoxicity IC50, CCL-8
# Experimental: as §1
# [7] = system: SH-SY5Y (human neuroblastoma); assay: In vitro cytotoxicity, MTT test; type: cell-based; conditions: Homo sapiens, SH-SY5Y, 72 h, read-out: Cytotoxicity IC50, SHSY5Y
# Experimental: as §1
# malignant tumor cells = assay: In vitro cytotoxicity on monolayer tumor cell lines (panel, summary in words); type: cell-based; conditions: summary of Table 1
# Experimental: Anticancer activity of selenopheno[h]chromenes was tested in vitro using cytotoxicity assay. Thus, monolayer tumor cell lines MDA-MB-435s (human melanoma), MCF-7 (human breast adenocarcinoma, estrogen-positive), MES-SA (human uterus sarcoma), HT-1080 (human fibrosarcoma), A549 (human lung carcinoma), SH-SY5Y (human neuroblastoma), CCL-8 (mouse sarcoma), MG-22A (mouse hepatoma), and HepG2 (human hepatocellular carcinoma) were cultured in standard medium DMEM (Dulbecco's modified Eagle's medium) (“Sigma”) supplemented with 10% fetal bovine serum (“Sigma”). About 2-9·10^4 cells/mL (depending on line nature) were placed in 96-well plates immediately after compounds were added to the wells. Untreated cells were used as a control. The plates were incubated for 72 h, 37° C., 5% CO2. The number of surviving cells was determined using 3-(4,5-dimethylthiazol-2-yl)-2,5-diphenyltetrazolinium bromide (MTT). MTT-test: after incubating culture medium was removed and 200 μL fresh medium with 10 mM HEPES was added in each well of the plate, than 20 μL MTT (2 mg/mL in HBSS) was added. After incubation (3 hr, 37° C., 5% CO2), the medium with MTT was removed and 200 μL DMSO were added at once to each sample. The samples were tested at 540 nm on Anthos HT II photometer.
# [8] = Basal cytotoxicity test, Neutral Red Uptake (NRU) assay; type: cell-based; conditions: for LD50 at 24 h: mouse, po, acute oral LD50 calculated from 3T3 NRU IC50 by regression formula, read-out: Basal cytotoxicity Estimated* LD50; for IC50 at 24 h: normal mouse embryo fibroblasts, read-out: Cytotoxicity IC50, 3T3
# Experimental: In parallel, the borderline concentration relevant to the highest tolerated dose has been determined for each compound using the NIH 3T3 (mouse embryo fibroblasts) cell line and the basal cytotoxicity obtained has then been used to predict the starting doses for in vivo acute oral LD50 values in rodents.
# the Neutral Red Uptake (NRU) assay was performed according to the standard protocol of Stokes modified by the NICEATM-ECVAM validation study. The NRU cytotoxicity assay procedure is based on the ability of viable cells to incorporate and bind Neutral Red, a supravitally dye. Balb/c 3T3 (Mouse Swiss Albino embryo fibroblast) cells (9000 cells/well) were placed into 96-well plates for 24 h in Dulbecco's modified Eagle's (DMEM) medium containing 5% fetal bovine serum. The cells were then exposed to the test compounds over a range of […] concentrations (1000, 316, 100, 31, 10, 3, 1 μg/ml) for 24 h. Untreated cells were used as a control. After 24 h, the medium was removed from all plates. Then, 250 μL of Neutral Red solution were added (0.05 mg/mL NR in DMEM 24 h pre-incubated at 37° C. and then filtered before use through 0.22-μm syringe filter). Plates were incubated for 3 h and then cells were washed three times with PBS. The dye within viable cells was released by extraction with a mixture of acetic acid, ethanol and water (1:50:49). Absorbance of Neutral Red was measured using a spectrophotometer multiplate reader (TECAN, Infinite M1000) at 540 nm. The percentage of living cells was calculated using the formula: OD (treated cells)*100/OD (control cells). The IC50 values were calculated using the programme Graph Pad Prism® 3.0.
# Data from the in vitro tests were used for estimating the starting dose for acute oral systemic toxicity tests in rodents. […] The value is recalculated to mg/kg and compounds are evaluated in accordance with four toxicity categories: category 1: LD50≤5 mg/kg (highly toxic); category 2: 5<LD50≤50 mg/kg (moderately toxic); category 3: 50<LD50≤300 mg/kg (slightly toxic); category 4: 300<LD50≤2 000 mg/kg (practically non-toxic).
# 4T1 carcinoma cells = assay: 4T1 model of lung metastasis (tail vein) in Balb/c mice; type: in vivo, mouse; conditions: for Spleen weight increase: 4T1 i.v., control with tumor +147%; for % of the total area occupied by metastases, % (control = 100) / % of the total area occupied by metastases, Mean ± SD: s.c., days 1, 4, 7, 9, 11, 14
# Experimental: Compounds were administered s.c. at 1, 4, 7, 9, 11 and 14th days. 4T1 cells (10,000/0.1 ml PBS) were injected i.v. into syngeneic mice. The metastasis at day 16 are shown for each mouse, and averages are provided for illustration.
# Balb/c mice were injected with 100,000 4T1 […] cancer cells into the tail vein and treatment started 24 hr later with subcutaneous (s.c.), intraperitoneal (i.p.) injections or oral administration (p.o.) of compounds according to the following scheme: 1, 4, 7, 9, 11 and 14th days in dose 20 or 40 mg/kg. Compounds were dissolved in DMSO and the solution were diluted by water (DMSO final concentration <1%). Mice in the control group were similarly given doses of 0.1 mL of water with DMSO. Twenty-one days later, all mice were anesthetized with ketamine/xylazine and euthanized, the mice were sacrificed spleens were excised from the mice and weighed. In each experiment, mice were weighed twice weekly.
# (Lewis et al, Cancer Res, 2005, 65) Pulmonary metastases were enumerated by intra-tracheal injection of India ink (15% India Ink, 85% water, 3 drops NH4OH/100 ml). India ink injected lungs were washed in Feket's solution (300 ml 70% EtOH, 30 ml 37% formaldehyde, 5 ml glacial acetic acid) and then placed fresh Feket's solution overnight. […] White tumor nodules against a black lung background were measured.
Structure (SMILES),IC50 [1],IC50 [2],IC50 [3],"IC50 ([4]; MCF7, 72 h)","IC50 ([5]; HepG2, 72 h)","IC50 ([6]; HT-1080, 72 h)",IC50 (MG-22A (mouse hepatoma)),IC50 (CCL-8 (mouse sarcoma)),IC50 [7],LD50 at 24 h [8],IC50 at 24 h [8],"IC50 ([1]; MTT, 72 h)",IC50 ([2]; MTT),IC50 ([3]; MTT),"IC50 ([4]; MCF7, MTT, 72 h)","IC50 ([5]; HepG2, MTT, 72 h)","IC50 ([6]; HT-1080, MTT, 72 h)",IC50 (MG-22A (mouse hepatoma); MTT),IC50 (CCL-8 (mouse sarcoma); MTT),IC50 ([7]; MTT),other results
"Cl.O=C(O)c1cc2ccc3c(Br)c(CN4CCOCC4)[se]c3c2oc1=O [Compound I-14, 7-Bromo-2-oxo-8-(morpholin-1-ylmethyl)-2H-selenopheno[3,2-h]chromene-3-carboxylic acid hydrochloride]",51 ± 8 µM,156 ± 9 µM,65 ± 6 µM,95 ± 9 µM,106 ± 9 µM,100 ± 6 µM,59 ± 2 µM,79 ± 9 µM,35 ± 9 µM,1320 mg/kg and 2600 µmol/kg,43 ± 2 µM,,,,,,,,,,Cytotoxicity on cancer cell lines (malignant tumor cells): remained cytotoxicity on cancer cell lines
"COC(=O)c1cc2ccc3c(Br)c(CN4CCCCC4)[se]c3c2oc1=O [Compound I-8, Methyl 7-bromo-2-oxo-8-(piperidin-1-ylmethyl)-2H-selenopheno[3,2-h]chromene-3-carboxylate]",,,,,,,,,,> 3900 µmol/kg and > 2000 mg/kg,54 ± 3 µM,115 ± 8 µM,> 192 µM,> 117 µM,165 ± 5 µM,181 ± 9 µM,> 192 µM,46 ± 3 µM,> 122 µM,> 192 µM,
"CN1CCN(Cc2[se]c3c(ccc4cc(C(=O)O)c(=O)oc43)c2Br)CC1.Cl [Compound I-15, 7-Bromo-8-/(4-methylpiperazin-1-yl/methyl)-2-oxo-2H-selenopheno[3,2-h]chromene-3-carboxylic acid hydrochloride]",> 192 µM,> 122 µM,> 117 µM,> 192 µM,> 192 µM,> 192 µM,186 ± 7 µM,> 122 µM,> 192 µM,3200 µmol/kg and 1670 mg/kg,192 ± 7 µM,,,,,,,,,,"Cytotoxicity on cancer cell lines (malignant tumor cells): low toxic to the cancer cell lines; Spleen weight increase (4T1 carcinoma cells; dose 20 mg/kg): 55%; Spleen weight increase (4T1 carcinoma cells; dose 40 mg/kg): 14%; Prevention of formation of 4T1 carcinoma lung metastasis (4T1 carcinoma cells; five mice per group): 98%; % of the total area occupied by metastases, % (control = 100) (4T1 carcinoma cells; 20 mg/kg): 4* %; % of the total area occupied by metastases, Mean ± SD (4T1 carcinoma cells; 20 mg/kg, control 50 ± 33): 2 ± 2%; % of the total area occupied by metastases, % (control = 100) (4T1 carcinoma cells; 40 mg/kg): 1* %; % of the total area occupied by metastases, Mean ± SD (4T1 carcinoma cells; 40 mg/kg): 0 ± 1%"
"Cl.O=C(O)c1cc2ccc3c(Br)c(CN4CCCCC4)[se]c3c2oc1=O [Compound I-13, 7-Bromo-2-oxo-8-(piperidin-1-ylmethyl)-2H-selenopheno[3,2-h]chromene-3-carboxylic acid hydrochloride]",129 ± 6 µM,182 ± 11 µM,103 ± 9 µM,119 ± 2 µM,> 197 µM,197 ± 3 µM,49 ± 6 µM,> 122 µM,> 197 µM,4300 µmol/kg and 2180 mg/kg,197 ± 8 µM,,,,,,,,,,
CCCCCCCCCCOC(=O)c1cc2ccc3c(Br)c(C4(O)CCCCC4)[se]c3c2oc1=O [Compound I-7],,,,,,,,,,> 3300 µmol/kg and > 2000 mg/kg,> 164 µM,> 164 µM,152 ± 9 µM,> 164 µM,48 ± 13 µM,151 ± 6 µM,> 164 µM,> 164 µM,81 ± 2 µM,> 117 µM,
"O=C(c1cc2ccc3c(Br)c(C4=CCCCC4)[se]c3c2oc1=O)N1CCOCC1 [Compound I-20, 7-Bromo-8-(cyclohex-1-en-1-yl)-3-(morpholine-1-carbonyl)-2H-selenopheno[3,2-h]chromen-2-one]",,,,,,,,,,3000 µmol/kg and 1600 mg/kg,> 192 µM,38 ± 5 µM,13 ± 1 µM,61 ± 4 µM,81 ± 7 µM,63 ± 6 µM,92 ± 12 µM,117 ± 7 µM,126 ± 4 µM,> 117 µM,

# Source: patent publication US10561681B2, “Antimetastatic 2H-selenopheno[3,2-h]chromenes, synthesis thereof, and methods of using same agents” (Latvian Institute of Organic Synthesis, priority 2016, dated 2020)
